Structures are written as SMILES.

In the experiment the target is H3 receptor (Rattus norvegicus, UniProt Q9QYN8). Nature of the experiment: H3 receptor binding, (3H)-N-α-methylhistamine displacement in rat cortical membranes. As to conditions: male Sprague-Dawley rat brain cortical membranes, 30 minutes at 25° C., Cheng-Prusoff, geometric mean values of 2-10 separate experiments. How it is done: Briefly, male Sprague-Dawley rat brain cortices were homogenized (1 g tissue/10 mL buffer) in 50 mM Tris-HCl/5 mM EDTA containing protease inhibitor cocktail (Calbiochem) using a polytron set at 20,500 rpm. Homogenates were centrifuged for 20 minutes at 40,000×g. The supernatant was decanted, and pellets were weighed. The pellet was resuspended by polytron homogenization in 40 mL 50 mM Tris-HCl/5 mM EDTA with protease inhibitors and centrifuged for 20 minutes at 40,000×g. […] Test compounds were added to the incubation mixtures prior to initiating the incubation assay by addition of the membranes. Thioperamide (3 μM) was used to determine nonspecific binding. Binding incubations were conducted for 30 minutes at 25° C. and terminated by addition of 2 mL of ice cold 50 mM Tris-HCl (H 7.7) and filtration through 0.3% polyethylenimine-soaked Unifilter plates (Packard). These filters were washed 4 additional times with 2 mL of ice-cold 50 mM Tris-HCl and dried for 1 hour. Radioactivity was determined using liquid scintillation counting techniques. Results were analyzed by Hill transformation and Ki values were determined using the Cheng-Prusoff equation.
Sequence of H3 receptor (Q9QYN8 1-397 isoform Q9QYN8-3): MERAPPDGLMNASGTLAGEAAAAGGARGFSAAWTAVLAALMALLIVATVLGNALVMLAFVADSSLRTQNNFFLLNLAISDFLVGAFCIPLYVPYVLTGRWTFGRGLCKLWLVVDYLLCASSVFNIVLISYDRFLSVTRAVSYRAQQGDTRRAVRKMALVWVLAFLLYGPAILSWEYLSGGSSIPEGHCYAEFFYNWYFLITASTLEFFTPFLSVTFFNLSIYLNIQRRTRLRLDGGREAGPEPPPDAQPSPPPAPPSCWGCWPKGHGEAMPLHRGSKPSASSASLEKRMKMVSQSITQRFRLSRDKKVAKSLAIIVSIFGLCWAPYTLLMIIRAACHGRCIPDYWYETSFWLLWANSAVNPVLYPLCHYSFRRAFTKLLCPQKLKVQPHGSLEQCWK
The molecule `CC(C)(C)[C@@H](N)C(=O)N1CCN(CCCOc2ccc(C(=O)C3CC3)cc2)CC1` [Example 66, (4-(3-(4-((2R)-2-amino-3,3-dimethylbutanoyl)-1-piperazinyl)propoxy)phenyl)(cyclopropyl)methanone] registered a Ki of 12.1 nM.
The result for `C[C@@H](NC(=O)c1ccc(Cl)cc1)C(=O)N1CCCN(CCCOc2ccc(-c3noc(CC4CCCC4)n3)c(F)c2)CC1` [Example 178, 4-chloro-N-{(1R)-2-[4-(3-{4-[5-(cyclopentylmethyl)-1,2,4-oxadiazol-3-yl]-3-fluorophenoxy}propyl)-1,4-diazepan-1-yl]-1-methyl-2-oxoethyl}benzamide] reads 8.2 nM; that for `Cc1cc(C)cc(C(=O)N[C@H](C)C(=O)N2CCN(CCCOc3ccc(C(=O)C4CC4)cc3)CC2)c1` [Example 196, N-[(1R)-2-(4-{3-[4-(cyclopropylcarbonyl)phenoxy]propyl}-1-piperazinyl)-1-methyl-2-oxoethyl]-3,5-dimethylbenzamide], 2.08 nM; that for `C[C@@H](NC(=O)c1ccno1)C(=O)N1CCN(CCCOc2ccc(-c3noc(-c4ccccc4)n3)c(F)c2)CC1` [Example 162, N-[(1R)-2-(4-{3-[3-fluoro-4-(5-phenyl-1,2,4-oxadiazol-3-yl)phenoxy]propyl}-1-piperazinyl)-1-methyl-2-oxoethyl]-5-isoxazolecarboxamide], 13 nM.
The result for `C[C@@H](NC(=O)[C@@H]1CCCO1)C(=O)N1CCN(CCCOc2ccc(-c3noc(-c4ccccc4)n3)c(F)c2)CC1` [Example 163, (2S)-N-[(1R)-2-(4-{3-[3-fluoro-4-(5-phenyl-1,2,4-oxadiazol-3-yl)phenoxy]propyl}-1-piperazinyl)-1-methyl-2-oxoethyl]tetrahydro-2-furancarboxamide] reads 8.35 nM.
The molecule `CC[C@@H](N)C(=O)N1CCN(CCCOc2ccc(C(=O)C3CC3)cc2)CC1` [Example 69, (4-(3-(4-((2R)-2-aminobutanoyl)-1-piperazinyl)propoxy)phenyl)(cyclopropyl)methanone] showed a Ki of 1.24 nM.
The result for `N#Cc1ccc(-c2ccc(OCCN3CCN(C(=O)[C@@H]4CCCN4)CC3)cc2)cc1` [Example 140, 4′-(2-(4-((2S)-pyrrolidinylcarbonyl)-1-piperazinyl)ethoxy)(1,1′-biphenyl)-4-carbonitrile] reads 818 nM; that for `C[C@@H](NC(=O)c1cccnc1)C(=O)N1CCN(CCCOc2ccc(-c3noc(-c4ccccc4)n3)c(F)c2)CC1` [Example 160, N-[(1R)-2-(4-{3-[3-fluoro-4-(5-phenyl-1,2,4-oxadiazol-3-yl)phenoxy]propyl}-1-piperazinyl)-1-methyl-2-oxoethyl]nicotinamide], 2.29 nM; that for `C[C@@H](NC(=O)c1ccco1)C(=O)N1CCCN(CCCOc2ccc(-c3noc(C4CCCC4)n3)c(F)c2)CC1` [Example 144, N-[(1R)-2-(4-{3-[4-(5-cyclopentyl-1,2,4-oxadiazol-3-yl)-3-fluorophenoxy]propyl}-1,4-diazepan-1-yl)-1-methyl-2-oxoethyl]-2-furamide], 1.36 nM.
For the molecule `C[C@H](CCOc1ccc(C(=O)C2CC2)cc1)N1CCN(C(=O)[C@@H](C)NC(=O)OC(C)(C)C)CC1` [Example 61, Tert-butyl (1R)-2-(4-((1R)-3-(4-(cyclopropylcarbonyl)phenoxy)-1-methylpropyl)-1-piperazinyl)-1-methyl-2-oxoethylcarbamate], the Ki stood at 0.74 nM.
`C[C@@H](NC(=O)c1ccc(Cl)c(Cl)c1)C(=O)N1CCN(CCCOc2ccc(-c3noc(CC4CCCC4)n3)c(F)c2)CC1` [Example 176, 3,4-dichloro-N-{(1R)-2-[4-(3-{4-[5-(cyclopentylmethyl)-1,2,4-oxadiazol-3-yl]-3-fluorophenoxy}propyl)-1-piperazinyl]-1-methyl-2-oxoethyl}benzamide]: the affinity, expressed as Ki, was 1.22 nM.
The result for `O=C(NCCC(=O)N1CCN(CCCOc2ccc(-c3noc(-c4ccccc4)n3)c(F)c2)CC1)C1CCCC1` [Example 158, N-[3-(4-{3-[3-fluoro-4-(5-phenyl-1,2,4-oxadiazol-3-yl)phenoxy]propyl}-1-piperazinyl)-3-oxopropyl]cyclopentanecarboxamide] reads 11.7 nM.
For `C[C@@H](N)C(=O)N1CCN(CCCOc2ccc(-c3ccc(C#N)cc3)cc2)CC1` [Example 100] the value was 12.4 nM; for `COc1ccc(C(=O)N[C@H](C)C(=O)N2CCN(CCCOc3ccc(-c4noc(CC5CCCC5)n4)c(F)c3)CC2)cc1` [Example 175, N-{(1R)-2-[4-(3-{4-[5-(cyclopentylmethyl)-1,2,4-oxadiazol-3-yl]-3-fluorophenoxy}propyl)-1-piperazinyl]-1-methyl-2-oxoethyl}-4-methoxybenzamide], 1.88 nM; for `COc1ccc(OC)c(C(=O)N[C@H](C)C(=O)N2CCN(CCCOc3ccc(C(=O)C4CC4)cc3)CC2)c1` [Example 197, N-[(1R)-2-(4-{3-[4-(cyclopropylcarbonyl)phenoxy]propyl}-1-piperazinyl)-1-methyl-2-oxoethyl]-2,5-dimethoxybenzamide], 3.1 nM.
The molecule `CCC(=O)N[C@H](C)C(=O)N1CCN(CCCOc2ccc(-c3noc(CC4CCCC4)n3)c(F)c2)CC1` [Example 170, N-{(1R)-2-[4-(3-{4-[5-(cyclopentylmethyl)-1,2,4-oxadiazol-3-yl]-3-fluorophenoxy}propyl)-1-piperazinyl]-1-methyl-2-oxoethyl}propanamide] gave a Ki of 8.74 nM.
The result for `C[C@H](N)C(=O)N1CCCN(CCCOc2ccc(C(=O)C3CC3)cc2)CC1` [Example 117, (4-(3-(4-((2S)-2-aminopropanoyl)-1,4-diazepan-1-yl)propoxy)phenyl)(cyclopropyl)methanone] reads 1.07 nM; that for `C[C@@H](NC(=O)CCN1CCOCC1)C(=O)N1CCN(CCCOc2ccc(-c3noc(-c4ccccc4)n3)c(F)c2)CC1` [Example 164, N-[(1R)-2-(4-{3-[3-fluoro-4-(5-phenyl-1,2,4-oxadiazol-3-yl)-phenoxy]propyl}-1-piperazinyl)-1-methyl-2-oxoethyl]-3-(4-morpholinyl)propanamide], 6.37 nM.
As to `C[C@@H](NC(=O)c1cccs1)C(=O)N1CCN(CCCOc2ccc(-c3noc(CCC(=O)N4CCCC4)n3)c(F)c2)CC1` [Example 190, N-((1R)-2-{4-[3-(3-fluoro-4-{5-[3-oxo-3-(1-pyrrolidinyl)propyl]-1,2,4-oxadiazol-3-yl}phenoxy)propyl]-1-piperazinyl}-1-methyl-2-oxoethyl)-2-thiophenecarboxamide], the Ki came out at 7.69 nM.
For `N#Cc1ccc(-c2ccc(OCCCN3CCCN(C(=O)[C@@H](Cc4cscn4)NC(=O)c4ccco4)CC3)cc2)cc1` [Example 137, N-((1R)-2-(4-(3-((4′-cyano(1,1′-biphenyl)-4-yl)oxy)propyl)-1,4-diazepan-1-yl)-2-oxo-1-(1,3-thiazol-4-ylmethyl)ethyl)-2-furamide] the value was 0.208 nM; for `CCOC(=O)c1nc(-c2ccc(OCCCN3CCN(C(=O)[C@@H](C)NC(=O)c4cccs4)CC3)cc2F)no1` [Example 191, Ethyl 3-{2-fluoro-4-[3-(4-{(2R)-2-[(2-thienylcarbonyl)amino]propanoyl}-1-piperazinyl)propoxy]phenyl}-1,2,4-oxadiazole-5-carboxylate], 15 nM.

These data come from patent publication US6559140B2 (Abbott Laboratories, priority 2000, dated 2003).
